Literature values, collected in patent publication US20150290173A1, “TREATMENT OF SKIN OR MUCOSAL PATHOLOGY” (ZARZATECH, INC., priority 2012, published 2015).
Where a name gives a salt, the structure may show the parent alone.

Tests used:
[1] = dog gingivitis model
crevicular neutrophils = conditions: topical 0.5% oral rinse, humans

CN/C(=N/CCSCc1nc[nH]c1C)NC#N [cimetidine HCL]
anti-gingivitis activity ([1]; dose response study): significant anti-gingivitis activity that increased with increasing dose

CN/C(=N/CCSCc1nc[nH]c1C)NC#N [cimetidine, Cimetidine]
gingival inflammation and gingival bleeding [1]: significantly reduced gingival inflammation and gingival bleeding
antibacterial function of crevicular neutrophils (crevicular neutrophils): enhanced antibacterial function of crevicular neutrophils
clinical benefit on gingivitis (crevicular neutrophils): no clinical benefit on gingivitis
